Laboratory results from patent US5385888A, “Class I MHC modulation or surface receptor activity” (The Regents of the University of California, priority 1993, dated 1995).
Where a SMILES comes first, the peptide text is derived from it.

Assays:
[1] = molecular target: T1, EGFR (Rattus norvegicus, UniProt G3V6K6); experiment: Cell-associated 125I-labeled EGF on rat adipocytes; type: binding
T1 construct: male Wistar rats (100-150 g) were decapitated, and the epididymal fat pads removed; endogenous in cells; host or cells: freshly isolated epididymal adipocytes of male Wistar rats
Method: (§1) Preparation of Adipocytes--The procedure has been described in detail previously. Briefly, male Wistar rats (100-150 g) were decapitated, and the epididymal fat pads removed and minced with scissors into KRHB (Krebs-Ringer/HEPES/Bovine serum albumin (BSA) buffer: 80 mM NaCl, 4.7 mM KCl, 2.5 mM CaCl2, 1.2 mM MgSO4, 50 mM HEPES, 5% BSA (Sigma, radioimmunoassay grade), pH 7.2) containing 5 mM D-glucose and 1 mg/ml collagenase (type I, Worthington) and digested (1 hr, 37° C.) with gentle shaking (250 cycles per minute). The adipocytes were washed five times in KRHB (each wash in a volume ten times the cell volume). The adipocyte layer was finally diluted with KRHB to a 10% (v/v) suspension as estimated by the volume of packed cells (lipocrit).
Cell-associated ^125 I-labeled EGF--50 μl adipocyte cell suspension was pipetted into "Nunc-Immuno tube minisorp" (Nunc, Denmark) and preincubated at 37° C. with gentle shaking (225 cycles per minute) for 30 min. […] The assay was terminated by centrifugation of 75 μl sample as described above for glucose uptake, and the cell-associated as well as the free ^125 I-labeled EGF was determined by γ-counting. […] The data were calculated as specific cell-associated ^125 I-labeled EGF and the maximal value was in each experiment set to 100%.

[2] = system: rat adipocytes; type: cell-based
Method: as §1
Glucose uptake in vitro--The uptake of [^14 C]glucose (D-[U-^14 C]glucose, Amersham, (300 Ci/mol)) by isolated rat adipocytes was measured as follows unless otherwise stated: 50 μl adipocyte cell suspension was pipetted into "Nunc-Immuno tube minisorp" (Nunc, Denmark) and preincubated at 37° C. with gentle shaking (225 cycles per minute) for 30 min. Hormones and peptides were added in 50 μl KRHB and incubated for 30 min at 37° C. Before addition to cells, all solutions were neutralized to pH 7.2. [^14 C]glucose tracer (~100,000 dpm) was added and the incubation continued for another 20 minutes at 37° C. The assay was terminated by centrifugation of 100 μl sample on top of 250 μl silicone oil (Thomas Scientific) in 500 μl tubes in a microfuge (10,000×g) for 1 min. The tube was cut just below the adipocyte layer and the amount of radioactivity in the adipocytes determined by scintillation counting. The precise concentration of [^14 C]glucose was calculated from total counts added.

[3] = molecular target: T2, purified human IR (Homo sapiens, UniProt P06213); experiment: Tyrosine kinase activity of purified IR (autophosphorylation); type: biochemical
T2 construct: The product was a tetramer with two heavy chains, each ~130 kDa, and two light chains, each ~90 kDa; from tissue; host or cells: human placenta
Method: The purified human IR and the cloned cytoplasmic kinase domain (IRKD) have been described (Ellis et al., (1988) Virology 62:1634-39; Roth et al., (1986) J. Biol. Chem. 261:3753-57). Briefly, the human IR was purified from placenta by immunoaffinity columns, using monoclonal antibodies and binding of IR to wheat germ agglutinin. The product was a tetramer with two heavy chains, each ~130 kDa, and two light chains, each ~90 kDa. […] When peptide was used, it was added in 5.0 μl, the volume adjusted to 20 μl by adding buffer, and the mixture incubated (1 hr, 4° C.). After incubation, 10 μl of a solution containing 2.5 μCi ^32 P-labeled ATP (3,000 Ci/mmol; γ-labeled; Amersham) 50 mM HEPES, pH 7.6, 150 mM NaCl, 0.1% Triton X-100, 37.5 μM unlabeled ATP, 15 mM MgCl2, and 6 mm MnCl2 was added to a final volume of 30 μ l. The mixture was then incubated for 30 min. at 24° C. After incubation, 15 μl sample buffer was added, and the sample was boiled for 5 min., and run on 10% SDS-PAGE overnight. The gel was dried, and autoradiograms processed with an exposure time of 5-10 hr. For quantitative estimates the β-subunit band of IR and the IRKD bands were cut out and counted dry (Cerenkov) in a scintillation counter.

[4] = system: rats; experiment: Blood glucose levels in whole rats after i.v. injection; type: in vivo, rat; details: insulin alone 10 μg/kg i.v.
Method: The effect of D^k -(61-85) in whole rats was determined. […] All animals were starved 16-20 hrs. prior to experimentation. Each determination was based on results as obtained from 42 rats, where the same rats were used in the four treatment schedules. The schedules were a control, a peptide by itself, insulin by itself, and insulin plus peptide. […] The peptide, at about 20 min., the blood glucose had dropped to about 65% of its original value and then slowly rose back to about the original value at about 90 min. and was maintained about the same level.

EGF: epidermal growth factor (mouse), Collaborative Research
Apparent affinity of specific cell-associated EGF [1]: low nanomolar range | Glucose uptake above basal ([2]; EGF alone): ~ 50%

ACTH-(1-24): human ACTH-(1-24), routine control peptide, Peninsula Laboratories
Substrate for IR tyrosine Kinase [3]: None of the control peptides (e.g. ACTH-(1-24) are substrates

insulin: unlabeled porcine insulin (NOVO)
EC50 ([3]; insulin as stimulus): ~0.003 µM | Blood glucose course compared with peptide alone [4]: A similar result

TGFα: TGFα (rat), Peninsula Laboratories
[14C]glucose uptake above basal ([2]; 50 nM TGFα alone): ~ 50%

CC[C@H](C)[C@H](NC(=O)[C@H](CCC(N)=O)NC(=O)[C@@H](NC(=O)[C@H](CCC(=O)O)NC(=O)[C@H](CCCNC(=N)N)NC(=O)[C@@H](N)CCC(=O)O)[C@@H](C)O)C(=O)N[C@@H](C)C(=O)N[C@@H](CCCCN)C(=O)NCC(=O)N[C@@H](CC(N)=O)C(=O)N[C@@H](CCC(=O)O)C(=O)N[C@@H](CCC(N)=O)C(=O)N[C@@H](CO)C(=O)N[C@@H](Cc1ccccc1)C(=O)N[C@@H](CCCNC(=N)N)C(=O)N[C@H](C(=O)N[C@@H](CC(=O)O)C(=O)N[C@@H](CC(C)C)C(=O)N[C@@H](CCCNC(=N)N)C(=O)N[C@H](C(=O)N[C@@H](CC(C)C)C(=O)N[C@@H](CC(C)C)C(=O)N[C@@H](CCCNC(=N)N)C(=O)N[C@@H](Cc1ccc(O)cc1)C(=O)N[C@@H](Cc1ccc(O)cc1)C(=O)O)[C@@H](C)O)C(C)C [D^k-(61-85)] (H-ERETQIAKGNEQSFRVDLRTLLRYY-OH)
EC50 [2]: 10 to 15 µM

PDGF
Effect on glucose uptake in adipocytes ([2]; PDGF alone): no effect
